Source: patent US7902363B2, “Diimide-based semiconductor materials and methods of preparing and using the same” (Polyera Corporation, priority 2006, dated 2011)

Key:
[1] = Solubility data in organic common solvents; format: physicochemical; details: comparison in words
Description: Solubility data were obtained for compounds of the present teachings in various organic common solvents (Table 3). N,N′-bis(4-n-octyl)-1,7-dicyanoperylene-3,4:9,10-bis(dicarboxiamide) (PDI8-CN2) was included as a comparative compound.

[2] = Solubility of isolated product in common organic solvents (noted at work-up); format: physicochemical; details: product after cyanation
Method: A mixture of N,N′-bis[4-(2′,3′,4′,5′,6′-pentafluorobiphenyl)]-1,7-dibromoperylene-3,4:9,10-bis(dicarboxiamide) (0.21 g, 0.203 mmol) and CuCN (0.33 g, 3.69 mmol) in DMF (10 mL) was deaerated and placed under nitrogen. The reaction mixture was heated at 150° C. for 9 hours. After cooling to room temperature, the precipitate was collected by filtration, washed several times with MeOH, and dried overnight. The product (0.11 g, 0.12 mmol, 59.1% yield) was insoluble in common organic solvents and it was gradient-sublimed.
A mixture of N,N′-bis(4-benzoylphenyl)-1,7-dibromoperylene-3,4:9,10-bis(dicarboxiamide) (0.60 g, 0.66 mmol) and CuCN (1.07 g, 12.0 mmol) in DMF (27 mL) was deaerated and placed under nitrogen. The reaction mixture was heated at 150° C. for 6 hours. After cooling to room temperature, the precipitate was collected by filtration, washed several times with MeOH, and dried overnight. The crude solid (0.42 g) was insoluble in common organic solvents.

Molecule	solubility compared to PDI8-CN2 and the other compounds of Table 3 [1]	solubility in common organic solvents [2]
CC(C)=CCC[C@H](C)CCN1C(=O)c2ccc3c4c(C#N)cc5c6c(ccc(c7c(C#N)cc(c2c37)C1=O)c64)C(=O)N(CC[C@@H](C)CCC=C(C)C)C5=O [PDICitr-CN2, N,N′-bis[(3S)-3,7-dimethyl-6-octenyl]-1,7-dicyanoperylene-3,4:9,10-bis(dicarboxiamide)]	unexpected increase in solubility	
N#Cc1cc2c3c(ccc4c5c(C#N)cc6c7c(ccc(c1c34)c75)C(=O)N(c1ccc(C(=O)c3ccccc3)cc1)C6=O)C(=O)N(c1ccc(C(=O)c3ccccc3)cc1)C2=O [PDIPhCOPh-CN2, N,N′-bis(4-n-benzoylphenyl)-1,7-dicyanoperylene-3,4:9,10-bis(dicarboxiamide)]		insoluble
N,N′-bis[4-(2′,3′,4′,5′,6′-pentafluorobiphenyl)]-1,7-dibromoperylene-3,4:9,10-bis(dicarboxiamide) [PDIPhPh^F-CN2]		insoluble
